How the values were obtained:
[1] = Drug uptake in mouse EMT6 tumor xenografted in Balb/c mouse after 30 mins by PET analysis; format: ADME, Neoplasm; conditions: in vivo, 0.5 h
[2] = system: Nucleic Acid; assay: Ratio of drug uptake in tumor to muscle of Balb/c mouse after 60 mins […] by PET analysis; format: ADME, nucleic-acid assay; conditions: in vivo, 1 h
[3] = Drug uptake in mouse EMT6 tumor xenografted in Balb/c mouse after 60 mins by PET analysis; format: ADME, Neoplasm; conditions: in vivo, 1 h
[4] = system: Muscle tissue; assay: Drug uptake in Balb/c mouse muscle after 10 mins by PET analysis; format: ADME, tissue-based; conditions: in vivo
[5] = Drug uptake in mouse EMT6 tumor xenografted in Balb/c mouse assessed per mg of protein after 15 mins by PET analysis; format: ADME, Neoplasm; conditions: in vivo, 0.25 h
[6] = Drug uptake in mouse EMT6 tumor xenografted in Balb/c mouse assessed per mg of protein after 100 mins by PET analysis; format: ADME, Neoplasm; conditions: in vivo
[7] = system: Muscle tissue; assay: Drug uptake in Balb/c mouse muscle after 30 to 60 mins by PET analysis; format: ADME, tissue-based; conditions: in vivo

- SUV [1]: 1.28
- Ratio [2]: 4.04
- SUV [3]: 1.21
- Drug uptake [4]: Active
- Drug uptake [5]: 105 %ID
- Drug uptake [6]: 60 %ID
- Drug uptake [7]: Not Active
Compound: N[C@@H](Cc1ccc(OCC[18F])cc1)C(=O)O [FLORETYROSINE F18]

Source: ChEMBL document CHEMBL2010706, “Microfluidic technology: an economical and versatile approach for the synthesis of O-(2-[18F]fluoroethyl)-L-tyrosine ([18F]FET)” (Bioorg Med Chem Lett, 2012)
